Converted amounts (≈) assume the structure as drawn.
Experiments:
Mus musculus [1] = assay: Reduction in amyloid beta (x to 40) in FVB mouse cortex at 10 mg/kg, po administered as single dose measured at 3 hrs; assay type: functional; set-up: scale not given: the % may be the effect or the level left
Mus musculus [2] = assay: Reduction in amyloid beta (x to 40) in FVB mouse cortex at 30 mg/kg, po administered as single dose measured at 3 hrs; assay type: functional; set-up: scale not given: the % may be the effect or the level left
Mus musculus [3] = assay: Reduction in amyloid beta (x to 40) in FVB mouse cortex at 3 mg/kg, po administered as single dose measured at 3 hrs; assay type: functional; set-up: scale not given: the % may be the effect or the level left
Mus musculus [4] = assay: Reduction in amyloid beta (x to 40) in FVB mouse cortex at 1 mg/kg, po administered as single dose measured at 3 hrs; assay type: functional; set-up: scale not given: the % may be the effect or the level left
Plasma [5] = assay: AUC (0 to 3 hrs) in FVB mouse plasma at 30 mg/kg, po; assay type: ADME, organism-based; set-up: time < 3 hr, dose 30 mg/kg, route oral; details: in vivo
[6] = Plasma concentration in FVB mouse at 30 mg/kg, po at 3 hrs; assay type: ADME, organism-based; set-up: dose 30 mg/kg, route oral
Brain [7] = assay: AUC (0 to 3 hrs) in FVB mouse brain at 30 mg/kg, po; assay type: ADME, organism-based; set-up: time < 3 hr, dose 30 mg/kg, route oral; details: in vivo
[8] = Drug uptake in FVB mouse brain at 30 mg/kg, po at 3 hrs; assay type: ADME, organism-based; set-up: dose 30 mg/kg, route oral; details: read-out: Drug uptake
Plasma [9] = assay: AUC (0 to 3 hrs) in FVB mouse plasma at 10 mg/kg, po; assay type: ADME, organism-based; set-up: time < 3 hr, dose 10 mg/kg, route oral; details: in vivo
Brain [10] = assay: AUC (0 to 3 hrs) in FVB mouse brain at 10 mg/kg, po; assay type: ADME, organism-based; set-up: time < 3 hr, dose 10 mg/kg, route oral; details: in vivo
[11] = Plasma concentration in FVB mouse at 10 mg/kg, po at 3 hrs; assay type: ADME, organism-based; set-up: dose 10 mg/kg, route oral
Plasma [12] = assay: AUC (0 to 3 hrs) in FVB mouse plasma at 3 mg/kg, po; assay type: ADME, organism-based; set-up: time < 3 hr, dose 3 mg/kg, route oral; details: in vivo
[13] = Drug uptake in FVB mouse brain at 10 mg/kg, po at 3 hrs; assay type: ADME, organism-based; set-up: dose 10 mg/kg, route oral; details: read-out: Drug uptake
[14] = Plasma concentration in FVB mouse at 3 mg/kg, po at 3 hrs; assay type: ADME, organism-based; set-up: dose 3 mg/kg, route oral
Brain [15] = assay: AUC (0 to 3 hrs) in FVB mouse brain at 3 mg/kg, po; assay type: ADME, organism-based; set-up: time < 3 hr, dose 3 mg/kg, route oral; details: in vivo
[16] = Drug uptake in FVB mouse brain at 3 mg/kg, po at 3 hrs; assay type: ADME, organism-based; set-up: dose 3 mg/kg, route oral; details: read-out: Drug uptake
Plasma [17] = assay: AUC (0 to 3 hrs) in FVB mouse plasma at 1 mg/kg, po; assay type: ADME, organism-based; set-up: time < 3 hr, dose 1 mg/kg, route oral; details: in vivo
[18] = Plasma concentration in FVB mouse at 1 mg/kg, po at 3 hrs; assay type: ADME, organism-based; set-up: dose 1 mg/kg, route oral
Brain [19] = assay: AUC (0 to 3 hrs) in FVB mouse brain at 1 mg/kg, po; assay type: ADME, organism-based; set-up: time < 3 hr, dose 1 mg/kg, route oral; details: in vivo
[20] = Drug uptake in FVB mouse brain at 1 mg/kg, po at 3 hrs; assay type: ADME, organism-based; set-up: dose 1 mg/kg, route oral; details: read-out: Drug uptake
[21] = Systemic clearance in rat; assay type: ADME, organism-based; details: in vivo
[22] = Oral bioavailability in rat; assay type: ADME, organism-based; details: in vivo
[23] = Passive permebility in wild-type MDCK cells; assay type: ADME, cell-based, Canis lupus familiaris; details: dog, read-out: permeability
[24] = Aqueous solubility of the compound; assay type: physicochemical; details: buffer
[25] = Octanol-water partition co-efficient, log P of the compound by shake-flask method; assay type: physicochemical
Liver microsomes [26] = assay: Glucuronidation metabolism in human liver microsomes assessed as compound remaining; assay type: ADME, Microsome
Liver microsomes [27] = assay: Glucuronidation metabolism in rat liver microsomes assessed as compound remaining; assay type: ADME, Microsome
Liver [28] = assay: Glucuronidation metabolism in dog liver microsomes assessed as compound remaining; assay type: ADME, Canis lupus familiaris, Microsome
Liver [29] = assay: Glucuronidation metabolism in mouse liver microsomes assessed as compound remaining; assay type: ADME, Microsome
Liver microsomes [30] = assay: Oxidative metabolism in human liver microsomes assessed as compound remaining; assay type: ADME, Microsome
Liver microsomes [31] = assay: Oxidative metabolism in rat liver microsomes assessed as compound remaining; assay type: ADME, Microsome
Liver [32] = assay: Oxidative metabolism in dog liver microsomes assessed as compound remaining; assay type: ADME, Canis lupus familiaris, Microsome
Liver [33] = assay: Oxidative metabolism in mouse liver microsomes assessed as compound remaining; assay type: ADME, Microsome
CHO [34] = assay: Selctivity ratio of ED50 for gamma-secretase in CHO cells assessed expressing NotchdeltaE assessed as inhibition of notch cleavage to ED50 for gamma-secretase in CHO cells assessed expressing APPSw assessed as inhibition of amyloid beta(1 to x) secretion; assay type: cell-based; details: Cricetulus griseus
CHO [35] = assay: Inhibition of gamma-secretase in CHO cells assessed expressing NotchdeltaE assessed as inhibition of notch cleavage after overnight incubation by luciferase reporter gene assay; assay type: cell-based; details: Cricetulus griseus
CHO [36] = assay: Inhibition of gamma-secretase in CHO cells assessed expressing APPSw assessed as inhibition of amyloid beta(1 to x) secretion after overnight incubation by ELISA; assay type: cell-based; details: Cricetulus griseus
[37] = molecular target: Gamma-secretase (Homo sapiens) (UniProt Q96BI3+Q9NZ42+Q8WW43+P49768+Q92542+P49810); assay: Selctivity ratio of IC50 for partially purified human gamma-secretase-mediated cleavage of notch fusion protein to IC50 for partially purified human gamma-secretase-mediated cleavage of MBP-APPc125Sw fusion protein; assay type: protein-complex assay
Gamma-secretase [38] = assay: Inhibition of partially purified human gamma-secretase-mediated cleavage of notch fusion protein measured after overnight incubation by ELISA; assay type: protein-complex assay
Gamma-secretase [39] = assay: Inhibition of partially purified human gamma-secretase-mediated cleavage of MBP-APPc125Sw fusion protein measured after overnight incubation by ELISA; assay type: protein-complex assay
Rattus norvegicus [40] = organism: Rattus norvegicus; assay: Systemic clearance in rat relative to hepatic blood flow; assay type: ADME, organism-based, Liver; details: in vivo
Homo sapiens [41] = assay: Hepatic toxicity in po dosed healthy human administered as gelatin capsule; assay type: organism-based; details: in vivo
Mus musculus [42] = assay: Toxicity in FVB mouse assessed as effect on Hes-1 mRNA level in thymus at 30 mg/kg, po administered as single dose measured at 3 hrs; assay type: organism-based; set-up: dose 30 mg/kg, route oral; details: in vivo
Mus musculus [43] = assay: Toxicity in FVB mouse assessed as effect on Hes-1 mRNA level in thymus at 10 mg/kg, po administered as single dose measured at 3 hrs; assay type: organism-based; set-up: dose 10 mg/kg, route oral; details: in vivo
Mus musculus [44] = assay: Toxicity in FVB mouse assessed as effect on Hes-1 mRNA level in thymus at 3 mg/kg, po administered as single dose measured at 3 hrs; assay type: organism-based; set-up: dose 3 mg/kg, route oral; details: in vivo
Mus musculus [45] = assay: Toxicity in FVB mouse assessed as effect on Hes-1 mRNA level in thymus at 1 mg/kg, po administered as single dose measured at 3 hrs; assay type: organism-based; set-up: dose 1 mg/kg, route oral; details: in vivo
Rattus norvegicus [46] = assay: Hepatic toxicity in rat administered for 6 months as repeated-dosing; assay type: organism-based; details: in vivo
Cynomolgus monkey = assay: Hepatic toxicity in cynomolgus monkey administered for 1 year as repeated-dosing; assay type: organism-based, Macaca fascicularis; details: in vivo
Homo sapiens [47] = assay: Reduction in amyloid beta in CSF of po dosed healthy human administered as gelatin capsule measured after 5 hrs post administration; assay type: functional; set-up: scale not given: the % may be the effect or the level left
Mus musculus [48] = assay: Toxicity in FVB mouse assessed as thymus atrophy compound administered orally bid for 7 days; assay type: organism-based; details: in vivo, po, 168 h
Mus musculus [49] = assay: Toxicity in FVB mouse assessed as goblet cell hyperplasia in intestine compound administered orally bid for 7 days; assay type: organism-based; details: in vivo, po, 168 h
Mus musculus [50] = assay: Selectivity ratio of EC25 for Reduction in amyloid beta (x to 40) brain to EC25 for change in Hes-1 mRNA level in thymus in po dosed FVB mouse
Mus musculus [51] = assay: Reduction in amyloid beta (x to 40) in FVB mouse cortex at 30 mg/kg, po administered as single dose measured at 6 hrs post administration; assay type: functional; set-up: scale not given: the % may be the effect or the level left
Mus musculus [52] = assay: Reduction in amyloid beta (x to 40) in po dosed FVB mouse brain administered as single dose measured at 3 hrs; assay type: functional

O=S(=O)(c1ccc(C(F)(F)F)nc1)N1c2ccc(F)cc2-c2n[nH]cc2[C@H]1C1CC1
Activity (Mus musculus [1]): 61% | Activity (Mus musculus [2]): 62% | Activity (Mus musculus [3]): 56% | Activity (Mus musculus [4]): 34% | AUC (Plasma [5]): 12 µM | concentration at 3 h [6]: 3500 nM | AUC (Brain [7]): 11 µM | concentration at 3 h [8]: 2600 nM | AUC (Plasma [9]): 4.7 µM | AUC (Brain [10]): 4.1 µM | concentration at 3 h [11]: 1200 nM | AUC (Plasma [12]): 0.57 µM | concentration at 3 h [13]: 1000 nM | concentration at 3 h [14]: 79 nM | AUC (Brain [15]): 0.92 µM | concentration at 3 h [16]: 220 nM | AUC (Plasma [17]): 0.14 µM | concentration at 3 h [18]: 14 nM | AUC (Brain [19]): 0.24 µM | concentration at 3 h [20]: 45 nM | clearance [21]: 23 mL/min/kg | bioavailability [22]: 92% | Papp [23]: 8.8 ×10⁻⁶ cm/s | solubility [24]: 100 µg/mL (≈ 228 µM) | logP [25]: 3.65 | Stability (Liver microsomes [26]): 91% | Stability (Liver microsomes [27]): 91% | Stability (Liver [28]): 87% | Stability (Liver [29]): 90% | Stability (Liver microsomes [30]): 85% | Stability (Liver microsomes [31]): 81% | Stability (Liver [32]): 80% | Stability (Liver [33]): 80% | Ratio ED50 (CHO [34]): 71 | ED50 (CHO [35]): 20 nM | ED50 (CHO [36]): 0.28 nM | Ratio IC50 [37]: 17 | IC50 (Gamma-secretase [38]): 1.7 nM | IC50 (Gamma-secretase [39]): 0.1 nM | CLH (Rattus norvegicus [40]): 42% | Activity (Homo sapiens [41]): Toxic | Activity (Mus musculus [42]): -46% | Activity (Mus musculus [43]): -44% | Activity (Mus musculus [44]): -21% | Activity (Mus musculus [45]): 11%

O=S(=O)(c1ccc(C(F)(F)F)cc1)N1c2cc(F)c(F)cc2-c2n[nH]cc2[C@H]1C1CC1
Activity (Mus musculus [1]): 61% | Activity (Mus musculus [2]): 64% | Activity (Mus musculus [3]): 48% | Activity (Mus musculus [4]): 32% | concentration at 3 h [6]: 3000 nM | concentration at 3 h [8]: 7200 nM | AUC (Plasma [9]): 0.68 µM | AUC (Brain [10]): 7 µM | concentration at 3 h [11]: 900 nM | AUC (Plasma [12]): 0.68 µM | concentration at 3 h [13]: 2100 nM | concentration at 3 h [14]: 190 nM | AUC (Brain [15]): 2.1 µM | concentration at 3 h [16]: 520 nM | AUC (Plasma [17]): 0.19 µM | concentration at 3 h [18]: 31 nM | AUC (Brain [19]): 0.64 µM | concentration at 3 h [20]: 120 nM | clearance [21]: 22 mL/min/kg | solubility [24]: 3 µg/mL (≈ 6.59 µM) | logP [25]: 3.91 | Stability (Liver microsomes [26]): 90% | Stability (Liver microsomes [27]): 90% | Stability (Liver [28]): 90% | Stability (Liver [29]): 88% | Stability (Liver microsomes [30]): 80% | Stability (Liver microsomes [31]): 66% | Stability (Liver [32]): 75% | Stability (Liver [33]): 72% | Ratio ED50 (CHO [34]): 78 | ED50 (CHO [35]): 86 nM | ED50 (CHO [36]): 1.1 nM | Ratio IC50 [37]: 19 | IC50 (Gamma-secretase [38]): 6.6 nM | IC50 (Gamma-secretase [39]): 0.34 nM | CLH (Rattus norvegicus [40]): 40% | Activity (Rattus norvegicus [46]): Non-toxic | Activity (Cynomolgus monkey): Non-toxic | Activity (Homo sapiens [41]): Toxic | Activity (Homo sapiens [47]): 31% | Activity (Mus musculus [48]): Non-toxic | Activity (Mus musculus [49]): Non-toxic | Selectivity ratio (Mus musculus [50]): 57 | Activity (Mus musculus [42]): -25% | Activity (Mus musculus [43]): -14% | Activity (Mus musculus [44]): -17% | Activity (Mus musculus [51]): 82% | EC25(unbound) (Mus musculus [52]): 0.034 nM

Source: ChEMBL document CHEMBL2396560, “Discovery of (R)-4-cyclopropyl-7,8-difluoro-5-(4-(trifluoromethyl)phenylsulfonyl)-4,5-dihydro-1H-pyrazolo[4,3-c]quinoline (ELND006) and (R)-4-cyclopropyl-8-fluoro-5-(6-(trifluoromethyl)pyridin-3-ylsulfonyl)-4,5-dihydro-2H-pyrazolo[4,3-c]quinoline (ELND007): metabolically stable γ-secretase …” (J Med Chem, 2013)
